The values that follow come from PubChem BioAssay (NCI).

Test systems include NCI-H460 lung; SF-268 CNS; HL-60(TB) leukemia; OVCAR-8 ovarian; K-562 leukemia; COLO 205 colon; LOX IMVI melanoma; SK-MEL-28 melanoma; IGROV1 ovarian; HOP-62 NSCLC.
What all share (test): growth of human tumour cells (NCI), 48 h

SMILES strings stand for the structures.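 Growth conditions: 96-well plates. Treatment: test compound, 48 hours, 5 concentrations. Analysis: linear interpolation between bracketing concentrations; unreached endpoints set to highest concentration. Abbreviation: GI50, concentration required for 50% inhibition of growth. TGI is the concentration that stops growth completely.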

As for `CCCCCCCCc1cc2c(O)c(c1)Cc1cc(CCCCCCCC)cc(c1O)Cc1cc(CCCCCCCC)cc(c1O)Cc1cc(CCCCCCCC)cc(c1O)Cc1cc(CCCCCCCC)cc(c1O)Cc1cc(CCCCCCCC)cc(c1O)C2`, the TGI in the assay on NCI-H460 lung, in the assay on SF-268 CNS, in the assay on HL-60(TB) leukemia, in the assay on OVCAR-8 ovarian, in the assay with K-562 leukemia and in the assay with COLO 205 colon was more than 100 µM in each case. The TGI in the assay with LOX IMVI melanoma, with SK-MEL-28 melanoma and in the assay on IGROV1 ovarian was more than 100 µM in each case.
Turning to `C=C(CN(C)Cc1ccccc1)c1ccc(NC(=O)c2ccc(C(=C)CN(C)Cc3ccccc3)cc2)cc1`, the GI50 in the assay on NCI-H460 lung is 97.3 µM; in the assay with SF-268 CNS, 39.3 µM; with HOP-62 NSCLC, 18.8 µM; with OVCAR-8 ovarian it was 45.3 µM; with K-562 leukemia it was 45 µM; in the assay on COLO 205 colon, more than 100 µM. The GI50 in the assay on LOX IMVI melanoma was 94.8 µM; in the assay with SK-MEL-28 melanoma, more than 100 µM; with IGROV1 ovarian it was 18.5 µM. Further, the TGI with NCI-H460 lung is more than 100 µM; in the assay on SF-268 CNS, more than 100 µM; in the assay with HOP-62 NSCLC, 36.9 µM; in the assay on OVCAR-8 ovarian, more than 100 µM; with K-562 leukemia it was more than 100 µM; in the assay on COLO 205 colon it was more than 100 µM. Moreover, the TGI in the assay on LOX IMVI melanoma was more than 100 µM; in the assay with SK-MEL-28 melanoma, more than 100 µM; with IGROV1 ovarian, 53.2 µM.
Take `O=[N+]([O-])c1cccnc1N=Nc1c(O)[nH]c2ccccc12`: the TGI with NCI-H460 lung is 35.9 µM; with SF-268 CNS it was more than 100 µM; in the assay on HOP-62 NSCLC, 60.7 µM; with OVCAR-8 ovarian, more than 100 µM; in the assay with K-562 leukemia, more than 100 µM; in the assay with LOX IMVI melanoma it was 25.7 µM. In addition, the TGI in the assay with SK-MEL-28 melanoma was determined as 74.4 µM; with IGROV1 ovarian, 53.9 µM.
In the case of `C[N+](C)(C)CC(=O)N/N=C(/Cc1cc(=O)oc2cc(O)ccc12)C(=O)Nc1ccc(Cl)cc1`, the TGI in the assay with NCI-H460 lung, in the assay on SF-268 CNS, in the assay on HOP-62 NSCLC, with HL-60(TB) leukemia, in the assay with OVCAR-8 ovarian and in the assay with K-562 leukemia was more than 100 µM throughout. The TGI in the assay on COLO 205 colon, with SK-MEL-28 melanoma and in the assay on IGROV1 ovarian was more than 100 µM in each case.
Take `CN(Cc1cnc2nc(N)nc(N)c2n1)c1ccc(C(=O)N[C@@H](CCS(=O)(=O)O)C(=O)O)cc1`: the TGI in the assay with NCI-H460 lung was more than 100 µM; in the assay on SF-268 CNS, more than 100 µM; in the assay with HOP-62 NSCLC, more than 100 µM; with OVCAR-8 ovarian, more than 55.3 µM; with K-562 leukemia it was more than 100 µM; with COLO 205 colon, more than 100 µM. The TGI with LOX IMVI melanoma, in the assay on SK-MEL-28 melanoma and in the assay with IGROV1 ovarian was more than 100 µM each time.
Turning to `Cc1cc2c(cc1C)[n+](=O)cc(C(=O)C/C(=N/NC(=S)NN)C(=O)Nc1cccc(C(F)(F)F)c1)n2[O-]`, the TGI with NCI-H460 lung, in the assay with SF-268 CNS, with HOP-62 NSCLC, in the assay on HL-60(TB) leukemia, in the assay on OVCAR-8 ovarian and with K-562 leukemia was more than 100 µM throughout. For the same compound, the TGI in the assay with COLO 205 colon, in the assay with SK-MEL-28 melanoma and with IGROV1 ovarian was more than 100 µM each time.
As for `O=C1C=C(c2c(O)ccc3ccccc23)c2cc(O)ccc2C1=O`, the TGI in the assay with NCI-H460 lung was 44.7 µM; with SF-268 CNS, 32.6 µM; with HOP-62 NSCLC it was 35.4 µM; in the assay with OVCAR-8 ovarian, 28.9 µM; in the assay with K-562 leukemia, more than 100 µM; in the assay on COLO 205 colon, 40 µM. Moreover, the TGI in the assay with LOX IMVI melanoma came out at 25.3 µM; with SK-MEL-28 melanoma, 36 µM; in the assay with IGROV1 ovarian, 30.3 µM.
For `CC(=O)N/C(=C\c1ccccc1/C=C(\NC(C)=O)c1nc2cc(C)c(C)cc2[nH]1)c1nc2cc(C)c(C)cc2[nH]1`, the TGI was 97.9 µM with NCI-H460 lung; more than 100 µM in the assay on SF-268 CNS; 68.6 µM in the assay on HOP-62 NSCLC; 40.9 µM in the assay on OVCAR-8 ovarian; 95.5 µM in the assay on K-562 leukemia; more than 100 µM with COLO 205 colon. Further, the results for the TGI in the assay on SK-MEL-28 melanoma and in the assay with IGROV1 ovarian were 48.8 µM and 66.3 µM, respectively.
For `CC[C@@H]1NC(C(=O)OC)Cc2c1[nH]c1ccccc21` (some centres undefined), the TGI with NCI-H460 lung, with HL-60(TB) leukemia, with OVCAR-8 ovarian, in the assay on K-562 leukemia, with COLO 205 colon and with LOX IMVI melanoma was more than 100 µM each time. Also, the TGI with SK-MEL-28 melanoma and in the assay with IGROV1 ovarian was more than 100 µM throughout.
On to `COC(=O)c1c2c(c(C)[n+]([O-])c1C)C(=O)C(NCc1ccc(Br)cc1)=CC2=O`, for which the GI50 was 1.86 µM in the assay on NCI-H460 lung; 2.21 µM in the assay on SF-268 CNS; 2.38 µM in the assay with HOP-62 NSCLC; 2.31 µM with HL-60(TB) leukemia; 1.83 µM in the assay with OVCAR-8 ovarian; 2.38 µM with K-562 leukemia. Also, the GI50 was 1.67 µM in the assay with LOX IMVI melanoma and 4.13 µM in the assay on SK-MEL-28 melanoma. The TGI is more than 100 µM in the assay on NCI-H460 lung; 7.12 µM with SF-268 CNS; 7.07 µM with HOP-62 NSCLC; 5.37 µM in the assay with HL-60(TB) leukemia; 7.19 µM in the assay with OVCAR-8 ovarian; more than 100 µM with K-562 leukemia. Also, the figures for the TGI in the assay on LOX IMVI melanoma and with SK-MEL-28 melanoma were 6.7 µM and more than 100 µM, respectively.
Turning to `CC1=C(C(=O)Nc2ccccc2)C(c2ccc(Cl)c(Cl)c2)C(C(=O)Nc2ccccc2)=C(C)N1`, the TGI was 31.2 µM in the assay on NCI-H460 lung; 24.9 µM in the assay on SF-268 CNS; 28.6 µM in the assay with HOP-62 NSCLC; 27.9 µM in the assay with OVCAR-8 ovarian; 29.4 µM in the assay with COLO 205 colon; 28.5 µM in the assay with LOX IMVI melanoma. Further, the TGI worked out at 25.7 µM with SK-MEL-28 melanoma and 37.1 µM with IGROV1 ovarian.
Consider `C=C(C)[C@@H]1CC[C@]2(CN)CC[C@]3(C)[C@H](CC[C@@H]4[C@@]5(C)CCCNC(C)(C)[C@@H]5CC[C@]43C)[C@@H]12`, for which the GI50 in the assay with NCI-H460 lung was 1.24 µM; in the assay with HOP-62 NSCLC, 1.93 µM; in the assay on COLO 205 colon it was 1.4 µM; in the assay with SK-MEL-28 melanoma it was 1.74 µM; with IGROV1 ovarian, 1.82 µM. For the same compound, the TGI in the assay on NCI-H460 lung was determined as 2.67 µM; in the assay with HOP-62 NSCLC, 3.73 µM; in the assay with COLO 205 colon it was 2.91 µM; in the assay with SK-MEL-28 melanoma, 3.38 µM; in the assay on IGROV1 ovarian, 3.57 µM.
Consider `CCSc1nc(N=Cc2ccccc2O)c2cn[nH]c2n1`, for which the GI50 is 30.7 µM in the assay on NCI-H460 lung; 23.9 µM with SF-268 CNS; 54.5 µM with HOP-62 NSCLC; 48.8 µM in the assay on OVCAR-8 ovarian; 41.6 µM in the assay on K-562 leukemia; 30.7 µM with COLO 205 colon. For the same compound, the values for the GI50 in the assay with LOX IMVI melanoma, in the assay with SK-MEL-28 melanoma and with IGROV1 ovarian were 30.1 µM, 33 µM and 40.9 µM, respectively. Further, the TGI was more than 100 µM with NCI-H460 lung; 77.4 µM in the assay on SF-268 CNS; more than 100 µM in the assay with HOP-62 NSCLC; more than 100 µM in the assay on OVCAR-8 ovarian; more than 100 µM in the assay on K-562 leukemia; more than 100 µM in the assay on COLO 205 colon. The TGI in the assay with LOX IMVI melanoma, with SK-MEL-28 melanoma and in the assay with IGROV1 ovarian was more than 100 µM in each case.
